Drawing on PubChem BioAssay AID328 (DTP/NCI, 2004), this text covers T/C for 17 molecules.

For the experiment, the system named is BDF1 mice, P388 leukemia ip, median survival T/C. In words: NCI In Vivo Anticancer Drug Screen. Data for tumor model P388 Leukemia (intraperitoneal) in B6D2F1 (BDF1) mice. Conditions: endpoint: median survival time, higher = longer survival. In a few lines: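 Survival ratio, drug arm over vehicle arm, in mice with a transplanted tumour.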
[1] abbreviates: dose: 25.0 mg/kg/injection, schedule: Q01DX009 (ip), vehicle: saline with Tween-80.
The mark [2] stands for this setting: dose: 50.0 mg/kg/injection, schedule: Q01DX009 (ip), vehicle: saline with Tween-80.
Setting [3] is: dose: 100.0 mg/kg/injection, schedule: Q01DX009 (ip), vehicle: saline with Tween-80.
The mark [4] stands for this setting: dose: 50.0 mg/kg/injection, schedule: Q04DX003 (ip), vehicle: Klucel (hydroxypropylcellulose) (HPC).
Setting [5] is: dose: 100.0 mg/kg/injection, schedule: Q04DX003 (ip), vehicle: Klucel (hydroxypropylcellulose) (HPC).
[6] abbreviates: dose: 200.0 mg/kg/injection, schedule: Q04DX003 (ip), vehicle: Klucel (hydroxypropylcellulose) (HPC).
Where [7] appears, read: dose: 100.0 mg/kg/injection, schedule: Q04DX003 (ip), vehicle: saline with Tween-80.
Where [8] appears, read: dose: 200.0 mg/kg/injection, schedule: Q04DX003 (ip), vehicle: saline with Tween-80.
Where [9] appears, read: dose: 200.0 mg/kg/injection, schedule: Q01DX009 (ip), vehicle: saline with Tween-80.
Setting [10] is: dose: 100.0 mg/kg/injection, schedule: Q01DX009 (ip), vehicle: Klucel (hydroxypropylcellulose) (HPC).
Where [11] appears, read: dose: 400.0 mg/kg/injection, schedule: Q04DX003 (ip), vehicle: Klucel (hydroxypropylcellulose) (HPC).

Where “and” joins values, the source holds several entries; their conditions need not be identical. Equal entries are not always repeated. Toxic doses and inconclusive results are not listed.

With `CCC/C=C/C=C/C1CC(O)C(O)C(=O)C1CO` (stereo unspecified), the T/C (dose: 12.5 mg/kg/injection, schedule: Q01DX009 (ip), vehicle: saline with Tween-80) was 99 % of control; the T/C under setting [1] was 106 % of control; the T/C under setting [2] was 97 % of control; the T/C under setting [3] is 101 % of control.

Consider `O=C1/C(=N/O)Cc2ccccc21`, for which the T/C (dose: 0.1 mg/kg/injection, schedule: Q01DX009 (ip), vehicle: water) is 101 % of control; the T/C (dose: 0.2 mg/kg/injection, schedule: Q01DX009 (ip), vehicle: water) was 103 % of control and 108 % of control; the T/C (dose: 0.8 mg/kg/injection, schedule: Q01DX009 (ip), vehicle: water) is 106 % of control; the T/C (dose: 1.2 mg/kg/injection, schedule: Q01DX009 (ip), vehicle: water) was 108 % of control; the T/C (dose: 2.4 mg/kg/injection, schedule: Q01DX009 (ip), vehicle: water) was 96 % of control; the T/C (dose: 3.12 mg/kg/injection, schedule: Q04DX003 (ip), vehicle: water) is 106 % of control. Also, the T/C is 97 % of control (dose: 6.25 mg/kg/injection, schedule: Q04DX003 (ip), vehicle: water); 115 % of control (dose: 12.5 mg/kg/injection, schedule: Q04DX003 (ip), vehicle: water); 104 % of control (dose: 25.0 mg/kg/injection, schedule: Q04DX003 (ip), vehicle: water); 106 % of control (dose: 50.0 mg/kg/injection, schedule: Q04DX003 (ip), vehicle: water).

As to `CC(=O)c1c(O)c(C)c(O)c2c1OC1=CC(=O)C(C(C)=O)C(=O)C12C` (stereo unspecified), the T/C (dose: 5.0 mg/kg/injection, schedule: Q01DX009 (ip), vehicle: gum acacia) was 100 % of control and 103 % of control; the T/C (dose: 10.0 mg/kg/injection, schedule: Q01DX009 (ip), vehicle: gum acacia) was 105 % of control and 108 % of control; the T/C (dose: 20.0 mg/kg/injection, schedule: Q01DX009 (ip), vehicle: gum acacia) was 107 % of control; the T/C (dose: 35.0 mg/kg/injection, schedule: Q01DX010 (ip), vehicle: saline) is 116 % of control; the T/C (dose: 40.0 mg/kg/injection, schedule: Q01DX009 (ip), vehicle: gum acacia) is 96 % of control and 105 % of control; the T/C (dose: 53.0 mg/kg/injection, schedule: Q01DX010 (ip), vehicle: saline) is 122 % of control. The T/C (dose: 79.0 mg/kg/injection, schedule: Q01DX010 (ip), vehicle: saline) is 122 % of control; the T/C (dose: 80.0 mg/kg/injection, schedule: Q01DX009 (ip), vehicle: gum acacia) was 103 % of control and 108 % of control.

As to `COc1cc(C)c(Cl)c(C)c1C(C)=O`, the T/C reads like this: under setting [4], 104 % of control; under setting [5], 95 % of control; under setting [6], 86 % of control.

Turning to `CC(=O)N=C1CCCC1C#N` (stereo unspecified), the T/C reads like this: (dose: 100.0 mg/kg/injection, schedule: Q01DX001 (ip), vehicle: Klucel (hydroxypropylcellulose) (HPC)) 104 % of control; (dose: 200.0 mg/kg/injection, schedule: Q01DX001 (ip), vehicle: Klucel (hydroxypropylcellulose) (HPC)) 100 % of control; (dose: 400.0 mg/kg/injection, schedule: Q01DX001 (ip), vehicle: Klucel (hydroxypropylcellulose) (HPC)) 95 % of control.

Turning to `CN(N)c1ccccc1`, the T/C reads like this: (dose: 6.25 mg/kg/injection, schedule: Q04DX003 (ip), vehicle: saline with Tween-80) 93 % of control; (dose: 12.5 mg/kg/injection, schedule: Q04DX003 (ip), vehicle: saline with Tween-80) 95 % of control; (dose: 25.0 mg/kg/injection, schedule: Q04DX003 (ip), vehicle: saline with Tween-80) 90 % of control; (dose: 50.0 mg/kg/injection, schedule: Q04DX003 (ip), vehicle: saline with Tween-80) 104 % of control and 105 % of control; under setting [7], 113 % of control; under setting [8], 123 % of control.

Turning to `COC(=O)Cc1[nH]ccc1C(=O)OC`, the T/C reads like this: (dose: 100.0 mg/kg/injection, schedule: Q01DX001 (ip), vehicle: saline with Tween-80) 103 % of control; (dose: 200.0 mg/kg/injection, schedule: Q01DX001 (ip), vehicle: saline with Tween-80) 109 % of control; (dose: 400.0 mg/kg/injection, schedule: Q01DX001 (ip), vehicle: saline with Tween-80) 120 % of control.

For the molecule `OC(Cc1nc2ccccc2nc1CC(O)(c1ccccc1)c1ccccc1)(c1ccccc1)c1ccccc1`, the T/C under setting [2] is 90 % of control, the T/C under setting [3] was 98 % of control and the T/C under setting [9] is 106 % of control.

In the case of `c1ccc(CC2(Cc3ccccc3)SCCS2)cc1`, the T/C is, setting by setting: under setting [10], 105 % of control; under setting [5], 95 % of control; (dose: 200.0 mg/kg/injection, schedule: Q01DX009 (ip), vehicle: Klucel (hydroxypropylcellulose) (HPC)) 105 % of control; under setting [6], 104 % of control; (dose: 400.0 mg/kg/injection, schedule: Q01DX009 (ip), vehicle: Klucel (hydroxypropylcellulose) (HPC)) 115 % of control; under setting [11], 104 % of control.

Take `COc1ccc2c(c1)C(Cc1ccc(Oc3ccc(CC4c5cc(OC)ccc5CC[N+]4(C)C)cc3)cc1)[N+](C)(C)CC2` (stereo unspecified): the T/C (dose: 0.1 mg/kg/injection, schedule: Q04DX003 (ip), vehicle: saline) is 104 % of control; the T/C (dose: 0.2 mg/kg/injection, schedule: Q04DX003 (ip), vehicle: saline) is 100 % of control; the T/C (dose: 0.39 mg/kg/injection, schedule: Q04DX003 (ip), vehicle: saline with Tween-80) is 93 % of control; the T/C (dose: 0.4 mg/kg/injection, schedule: Q04DX003 (ip), vehicle: saline) is 96 % of control.

Take `OCCN1CCN(CCCN2c3ccccc3Oc3ccc(C(F)(F)F)cc32)CC1`: the T/C by setting is: (dose: 15.0 mg/kg/injection, schedule: Q04DX003 (ip), vehicle: saline) 105 % of control; (dose: 25.0 mg/kg/injection, schedule: Q01DX009 (ip), vehicle: saline) 104 % of control; (dose: 30.0 mg/kg/injection, schedule: Q04DX003 (ip), vehicle: saline) 115 % of control; (dose: 50.0 mg/kg/injection, schedule: Q01DX009 (ip), vehicle: Klucel (hydroxypropylcellulose) (HPC)) 150 % of control; (dose: 120.0 mg/kg/injection, schedule: Q04DX003 (ip), vehicle: saline) 105 % of control.

Take `COc1ccc(/C=C/c2c[n+]([O-])ccc2[N+](=O)[O-])cc1`: the T/C runs as follows: under setting [2], 105 % of control; under setting [3], 109 % of control; under setting [9], 119 % of control.

For `CCOC(=O)c1cc(N)c(C(=O)OCC)cc1N`, the T/C is 99 % of control and 114 % of control under setting [2]; 98 % of control and 108 % of control under setting [3]; 106 % of control under setting [9]; 99 % of control (dose: 400.0 mg/kg/injection, schedule: Q01DX009 (ip), vehicle: saline with Tween-80).

Take `COc1ccc(CNCC(=O)OCc2ccccc2)cc1`: the T/C is 92 % of control under setting [1]; 101 % of control under setting [2]; 88 % of control under setting [3]; 111 % of control under setting [7]; 102 % of control under setting [9]; 109 % of control under setting [8].

As for `CCCCn1cnc2c(SC)nc(N)nc21`, the T/C was 95 % of control (dose: 66.0 mg/kg/injection, schedule: Q01DX009 (ip), vehicle: Klucel (hydroxypropylcellulose) (HPC)); 104 % of control under setting [10]; 100 % of control under setting [5]; 100 % of control (dose: 150.0 mg/kg/injection, schedule: Q01DX009 (ip), vehicle: Klucel (hydroxypropylcellulose) (HPC)); 90 % of control under setting [6]; 90 % of control under setting [11].

In the case of `CC(C)Cc1c[nH]c(=O)[nH]c1=O`, the T/C under setting [7] is 90 % of control; the T/C under setting [8] is 90 % of control; the T/C (dose: 400.0 mg/kg/injection, schedule: Q04DX003 (ip), vehicle: saline with Tween-80) is 90 % of control.

On to `Cc1ncc([N+](=O)[O-])n1CCO`, for which the T/C was 100 % of control under setting [4], 100 % of control under setting [5], 95 % of control under setting [6] and 91 % of control under setting [11].
